The test system of assay [1] is RAW264.7 macrophages. As to the kind of experiment: Intracellular uptake of FITC-rmCIRP by macrophages (flow cytometry, confocal microscopy). The settings on record: for intracellular FITC-rmCIRP uptake (flow cytometry): RAW264.7, FITC-rmCIRP 1 μg/mL co-incubated with test substance (peptide 10 μg/mL), 1 hour, vs FITC-rmCIRP alone. Type of assay: cell-based, mouse. The procedure:
FIG. 3. Effects of MOP peptides MOP-3, MOP-8 and MOP-14 on eCIRP. Flow cytometry experiment whereby RAW264.7 macrophages were treated for 1 hour according to respective group: PBS (volume-equivalent), FITC-rmCIRP (1 μg/mL), or a mixture of FITC-rmCIRP (1 μg/mL) with each respective peptide (10 μg/mL) after co-incubating for 30 minutes. Intracellular FITC-rmCIRP was analyzed by flow cytometry. Median fluorescence intensity (MFI) reported as percentage relative to PBS-treated RAW264.7 cells. Data from two independent experiments are expressed as mean±SEM and compared by one-way ANOVA and SNK test. *p<0.05 vs. PBS, #p<0.05 vs. eCIRP.
(§1) Computational modeling was used to determine the likely domain of MFG-E8's binding to eCIRP. The known amino acid (AA) sequence of this domain was used to develop and test potential therapeutic peptides. An MFG-E8 derived oligopeptide, MOP3, was developed based on 15 AA from MFG-E8 discoidin 2 domain (mimicking MFG-E8's C-terminal) and tagged with the 3 AA, RGD, (mimicking MFG-E8's binding capacity for the integrin receptor at the N-terminal). Binding of MOP3 to CIRP was quantified using Surface Plasmon Resonance (SPR) analysis. Macrophages (RAW264.7 cells) were treated with FITC-recombinant mouse (rm)-CIRP or co-incubated MOP3 and FITC-rmCIRP with and without a. Br-integrin Ab. After 1 h, cells were fixed and analyzed for intracellular FITC-rmCIRP by flow cytometry. Macrophages were stimulated with rmCIRP or co-incubated mixture of MOP3 and rmCIRP. After 4 h, cell culture supernatants were analyzed for inflammatory cytokine, TNFα.
Mouse macrophage cell line, RAW264.7 cells were obtained from American Type Culture Collection (ATCC) and cultured in DMEM media with 10% FBS, 1% penicillin and streptomycin, and 1% glutamine. Cells were kept in 37° C. incubator under humidified conditions containing 5% CO2.
rmCIRP was labeled using a FITC Conjugation Kit (Abcam, ab188285), and rmMFG-E8 was labeled using Alexa Fluor Conjugation Kit (Abcam, ab269821), both according to respective manufacturer's instructions.
In order to visualize cellular uptake, we initially utilized TRITC-BSA as an internal probe, as BSA is taken up into cells primarily by endocytosis and retained intracellularly after fixation (27, 28). For further visualization of intracellular localization, we utilized LAMP1 primary antibody (as it is distributed among endolysosomal organelles and serves as a marker for lysosomal compartments) (29), and utilized lysotracker in live cell experiments (as it allows for imaging of dynamics of lysosome vesicle movements) (30). RAW264.7 cells were treated in various conditions with rmCIRP, rmMFG-E8, and inhibitory antibody against auß3-integrin (Bioss antibodies, bs-1310R) for 4 hours. Cells were fixed with 4% paraformaldehyde (PFA), washed with 1×PBS, permeabilized using 0.3% Triton x100, and blocked using 5% BSA 100 mM Glycine in PBS prior to primary antibody treatment. After incubation with secondary antibodies, cells were washed and mounted with ProLong Gold antifade reagent (Invitrogen). For live cell imaging, cells remained in treatment conditions and were imaged under CO2. Staining procedures were performed according to the manufacturers' instructions utilizing respective fluorescent dyes and probes. For all imaging, confocal microscopy images were obtained using a Zeiss LSM880 confocal microscope equipped with a 63× objective. Images were quantified and analyzed using Image J, FIJI.(31) Flow cytometry.
To detect changes in internalized eCIRP in the presence of MFG-E8, RAW264.7 cells were seeded in 12-well plates (approximately 3×10^5 cells/well) and were treated with FITC-eCIRP. Treatment groups consisted of FITC-eCIRP, FITC-eCIRP with MFG-E8, FITC-eCIRP with MFG-E8 and αvβ3-integrin antibody (0.5 μg/mL), or FITC-eCIRP with MFG-E8 and IgG isotype (0.5 μg/mL). Similar experiments were conducted with MOP3 instead of MFG-E8 in parallel groups. […]

Assay [2] has as its system RAW264.7 cells. As to the kind of experiment: eCIRP-induced cytokine release in RAW264.7 cells (ELISA of supernatants). As to conditions: RAW264.7, rmCIRP 1 μg/mL, 4 hours, vs rmCIRP alone. It counts as cell-based, mouse. The procedure:
FIG. 2. Effects of MOP peptides on TNFα levels. RAW264.7 macrophages were cultured and treated with either volume-equivalent PBS, recombinant murine (rm) CIRP (eCIRP; 1 μg/mL), or rmCIRP with each respective peptide (10 μg/mL). After 4 hours, cell supernatants were assessed for TNFα levels by ELISA. Experiments were performed 3 times, and all data were used for analysis. Data are expressed as mean±SEM and compared by one-way ANOVA and SNK test. *p<0.05 vs. PBS, #p<0.05 vs. eCIRP.
FIG. 4. eCIRP-induced inflammation is attenuated by MOP3. RAW264.7 cells were treated according to respective groups: PBS (volume equivalent), rmCIRP (1 μg/mL), or rmCIRP with MOP3 at increasing doses. After 4 hours, cell supernatants were analyzed for TNFα levels by ELISA. Experiments were performed 3 times, and all data were used for analysis. Data are expressed as mean #SEM and compared by one-way ANOVA and SNK test. *p<0.05 vs. PBS, #p<0.05 vs. eCIRP.
as §1
Mouse macrophage cell line, RAW264.7 cells were obtained from American Type Culture Collection (ATCC) and cultured in DMEM media with 10% FBS, 1% penicillin and streptomycin, and 1% glutamine. Cells were kept in 37° C. incubator under humidified conditions containing 5% CO2. […]
The mouse macrophage cell culture supernatants were analyzed for cytokine levels using ELISA kits (BD Biosciences, CA). […] TNF-α and IL-6 levels were measured in cell supernatants by ELISA in accordance with respective manufacturers' instructions (BD Biosciences, CA). Blood was collected, centrifuged at 4,000 RPM for 10 minutes, and sera was separated and analyzed for cytokine levels using ELISA kits (BD Biosciences, CA). TNF-α and IL-6 levels in the serum were measured by ELISA in accordance with respective manufacturers' instructions.

“Also recorded” adds a separate entry of the source. Residues, ends and D or L forms follow the SMILES beside them.

As for `CC(C)C[C@H](NC(=O)[C@H](CC(N)=O)NC(=O)[C@H](Cc1c[nH]c2ccccc12)NC(=O)[C@@H](NC(=O)[C@H](CCCCN)NC(=O)[C@H](Cc1ccc(O)cc1)NC(=O)[C@H](CO)NC(=O)[C@H](CO)NC(=O)[C@H](CO)NC(=O)[C@H](CC(=O)O)NC(=O)CNC(=O)[C@@H](N)CCCNC(=N)N)[C@@H](C)O)C(=O)N[C@@H](CCCNC(=N)N)C(=O)N[C@@H](C)C(=O)N[C@@H](Cc1ccccc1)C(=O)NCC(=O)N[C@@H](Cc1c[nH]c2ccccc12)C(=O)N[C@@H](Cc1ccc(O)cc1)C(=O)O` [MOP3, RGDSSSYKTWNLRAFGWY] (H-RGDSSSYKTWNLRAFGWY-OH; N-terminus and C-terminus assumed), the “intracellular FITC-rmCIRP uptake (flow cytometry)” value is “increased intracellular fluorescence; also recorded: significantly increased intracellular rmCIRP uptake” in assay [1] and “could increase intracellular uptake of FITC-eCIRP” in assay [1] (listed as peptide-3). Also, in assay [1] (RAW264.7, αvβ3-integrin antibody 0.5 μg/mL), the “intracellular FITC-rmCIRP uptake with αvβ3-integrin blocking antibody (flow cytometry)” value was “prevented”. Also, the entries for the “TNFα levels in cell supernatants” value in assay [2] and in assay [2] (listed as peptide-3) were “strong inhibitory effect; also recorded: significantly decreased TNFα levels” and “capable of attenuating TNFα release”, respectively.

For the origin of these results see US20240197828A1, “Chimeric molecule to treat sepsis and other inflammatory conditions” (THE FEINSTEIN INSTITUTES FOR MEDICAL RESEARCH, priority 2022, published 2024).
